What was measured:
[1] = test system: mesenteric arteries of mice with chronic heart failure; assay: Flow-mediated dilatation of isolated mesenteric arteries from mice with chronic heart failure (coronary artery occlusion model); format: cell-based, C57BL6 mice; settings: CHF mouse arteries, in-vitro incubation 30 min, preconstriction by phenylephrine
Excerpt: Experimentally, flow-induced release of NO in small peripheral arteries (i.e. arteries that contribute to the increased resistance in heart failure) may be assessed in vitro in isolated perfused, pressurized arteries such as small (<300 μm diameter) mesenteric or hindquarter arteries.
Chronic heart failure is induced in C57BL6 mice (n=12) by coronary ligation according to the model developed in rats by Varin et al,1999, Circulation, 99, 2951-2957.
Mice are anesthetized, ventilated and a thoracotomy (incision of the pleural cavity) is performed. The left main coronary artery is ligated close to its origin. This procedure leads to the development of an infarct involving around 40% of the left ventricle. Post-infarction mortality in this mouse model is around 40-50%.
The development of heart failure is assessed by echocardiography in the closed chest state 7 days and 2 months after coronary ligation. Sham-operated (normal) mice are subjected to the same protocol except that the artery is not be ligated. […]
(§1) Flow-mediated vasodilatation (FMD), i.e. changes in vessel diameter in response to stepwise increases in intra-luminal flow (0-200 μl/min) is evaluated after preconstriction by phenylephrine (incubated 2min at 10^-5 M) after a contraction plateau is reached, at baseline and after incubation with a compound of the invention: […]

[2] = test system: mesenteric arteries of normal mice; assay: Flow-mediated dilatation of isolated mesenteric arteries from normal (sham-operated) mice; format: cell-based, C57BL6 mice; settings: 10^-5 M, compared with the roughly abolished response in CHF arteries (FIG. 1)
Protocol: The flow-mediated dilatation response in a normal mouse (open circles) is compared to the flow-mediated dilatation response of mesenteric arteries in either normal mouse subjected to an inhibitor of NO synthesis (left, black circles) or in a mouse wherein chronic heart failure (CHF) has been induced as described in Example 1 (right, black circles).
The development of heart failure is assessed by echocardiography in the closed chest state 7 days and 2 months after coronary ligation. Sham-operated (normal) mice are subjected to the same protocol except that the artery is not be ligated. Six mice are present in each group and mice that survived myocardial infarction are further used in the study.
After two months, the mice is anesthetized and subjected to laparotomy (incision into the abdominal cavity).
A portion of the mesenteric artery (diameter 250-350 μm) is carefully isolated under a dissection microscope, and a 1.5to 2.0-mm length segment is cannulated on both ends, transferred to an arteriograph (Living Systems Instrumentation) and pressurized to 60 mm Hg.
as §1

SMILES	flow-mediated dilatation (% dilatation) restoration ([1]; 10^-5 M in Krebs buffer, flow 0-200 μl/min (FIG. 2 left))	flow-mediated dilatation (% dilatation) restoration ([1]; 10^-6 M in Krebs buffer, flow 0-200 μl/min (FIG. 2 right))	inhibition of the flow-mediated dilatation response [2]
CCCCCCc1ccc(C#Cc2ccc(CN(Cc3ccc(C(F)(F)F)cc3)C(=O)C(=O)O)cc2)cc1 [Compound 1, {{4-[(4-hexylphenyl)ethynyl]benzyl}[4-(trifluoromethyl)benzyl]amino}(oxo)acetic acid]	restored to the normal level	restored to the normal level	
N=C(NCCC[C@H](N)C(=O)O)N[N+](=O)[O-] [NG-nitro-L-arginine]			inhibition of the dilatation response is similar
